Counter-ions that a name gives are not always drawn. No end group written: not given here. PEG‑FIM = not defined here
How the values were obtained:
human TLR7 = target: T1, human TLR7 (Homo sapiens, UniProt Q9NYK1); assay: Human TLR7 HEK-Blue reporter gene assay (NF-kappaB activation, SEAP); format: cell-based; details: in comparison with R848
T1 construct: host or cells: HEK-Blue-hTLR7 (HEK293)
T1 sequence (Q9NYK1 27-1049): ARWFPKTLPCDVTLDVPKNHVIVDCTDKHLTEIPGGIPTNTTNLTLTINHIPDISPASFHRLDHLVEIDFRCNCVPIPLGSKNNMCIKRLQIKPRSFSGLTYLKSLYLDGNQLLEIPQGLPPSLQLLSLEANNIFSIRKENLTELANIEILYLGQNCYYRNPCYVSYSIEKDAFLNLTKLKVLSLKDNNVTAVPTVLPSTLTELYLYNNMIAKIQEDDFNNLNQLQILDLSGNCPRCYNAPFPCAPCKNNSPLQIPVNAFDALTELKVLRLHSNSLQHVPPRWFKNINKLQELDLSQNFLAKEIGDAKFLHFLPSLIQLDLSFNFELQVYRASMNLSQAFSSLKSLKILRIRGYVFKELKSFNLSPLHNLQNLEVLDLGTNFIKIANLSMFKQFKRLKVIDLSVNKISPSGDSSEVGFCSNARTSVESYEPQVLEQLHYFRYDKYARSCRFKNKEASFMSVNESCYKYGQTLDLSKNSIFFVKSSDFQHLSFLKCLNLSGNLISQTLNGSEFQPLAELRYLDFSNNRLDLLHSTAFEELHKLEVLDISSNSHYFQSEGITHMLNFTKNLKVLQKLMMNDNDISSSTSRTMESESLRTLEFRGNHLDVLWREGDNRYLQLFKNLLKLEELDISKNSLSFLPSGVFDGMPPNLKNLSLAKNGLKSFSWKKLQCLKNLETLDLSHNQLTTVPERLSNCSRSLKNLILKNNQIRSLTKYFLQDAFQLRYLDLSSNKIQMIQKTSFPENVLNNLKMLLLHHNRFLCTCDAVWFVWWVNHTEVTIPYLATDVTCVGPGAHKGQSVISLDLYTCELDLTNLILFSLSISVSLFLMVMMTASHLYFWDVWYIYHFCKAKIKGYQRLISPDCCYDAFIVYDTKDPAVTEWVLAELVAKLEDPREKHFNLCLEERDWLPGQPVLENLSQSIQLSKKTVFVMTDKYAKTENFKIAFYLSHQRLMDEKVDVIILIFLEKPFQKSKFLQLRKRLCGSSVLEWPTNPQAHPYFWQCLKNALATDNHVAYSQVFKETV
Protocol: (§1) The activity of different TLR-7 or TLR-8 agonist were tested using human TLR-specific HEK-Blue™ reporter gene assays (Invivogen, France). HEK-Blue™-hTLR7 cells and HEK-Blue™-hTLR8 cells were obtained by co-transfection of the human TLR7 gene or human TLR8 genes and an inducible SEAP (secreted embryonic alkaline phosphatase) reporter gene into HEK293 cells. The SEAP gene is placed under the control of the IFN-β minimal promoter fused to five NF-kappaB and AP-1-binding sites. Stimulation with a TLR ligand activates NF-kappaB and AP-1 which induce the production of SEAP. Cells were maintained in HEK-Blue™ selection medium containing Blasticidin, Zeocin and Normocin. HEK-Blue™ cells were incubated at a density of 10^5 cells/mL in a volume of 200 ul in 96 well plates. In the presence of the HEK-Blue™ detection media, the secretion of SEAP (proportional to the to the NF-kappaB induction) was quantified at […].

human TLR8 = target: T2, human TLR8 (Homo sapiens, UniProt Q9NR97); assay: Human TLR8 HEK-Blue reporter gene assay (NF-kappaB activation, SEAP); format: cell-based; details: in comparison with R848
T2 construct: host or cells: HEK-Blue-hTLR8 (HEK293)
T2 sequence (Q9NR97 27-1041): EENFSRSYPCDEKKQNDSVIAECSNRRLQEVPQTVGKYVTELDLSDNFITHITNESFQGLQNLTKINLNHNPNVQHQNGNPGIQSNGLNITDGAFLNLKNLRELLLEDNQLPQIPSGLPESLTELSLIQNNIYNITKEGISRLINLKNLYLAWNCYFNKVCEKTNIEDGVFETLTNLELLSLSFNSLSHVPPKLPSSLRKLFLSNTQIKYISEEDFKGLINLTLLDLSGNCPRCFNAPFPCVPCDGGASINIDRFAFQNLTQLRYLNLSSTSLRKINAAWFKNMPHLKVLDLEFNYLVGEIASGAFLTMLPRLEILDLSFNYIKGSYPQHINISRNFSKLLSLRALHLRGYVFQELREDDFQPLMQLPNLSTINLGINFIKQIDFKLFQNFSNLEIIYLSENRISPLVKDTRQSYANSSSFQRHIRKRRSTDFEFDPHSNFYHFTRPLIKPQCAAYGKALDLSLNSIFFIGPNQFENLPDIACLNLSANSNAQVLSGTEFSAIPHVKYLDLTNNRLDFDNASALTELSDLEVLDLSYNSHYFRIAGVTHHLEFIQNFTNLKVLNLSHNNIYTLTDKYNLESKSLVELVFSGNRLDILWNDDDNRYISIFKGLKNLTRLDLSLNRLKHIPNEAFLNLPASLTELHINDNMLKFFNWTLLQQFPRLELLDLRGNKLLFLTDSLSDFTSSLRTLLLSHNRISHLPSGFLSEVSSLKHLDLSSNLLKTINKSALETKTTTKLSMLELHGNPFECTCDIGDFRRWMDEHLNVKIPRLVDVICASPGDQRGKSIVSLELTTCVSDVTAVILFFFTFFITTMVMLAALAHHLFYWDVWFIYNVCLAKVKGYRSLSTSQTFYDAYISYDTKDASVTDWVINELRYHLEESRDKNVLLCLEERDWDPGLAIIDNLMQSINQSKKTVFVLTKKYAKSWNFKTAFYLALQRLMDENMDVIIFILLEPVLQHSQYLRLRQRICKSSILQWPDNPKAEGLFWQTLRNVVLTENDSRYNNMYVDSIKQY
Protocol: as §1

[1] = test system: T cell immune response to FP-02.2 vaccine peptides; format: in vivo, BALB/c mice; details: conclusions of Example 2

Molecule | NF-kappaB activation in HEK-293 cells expressing TLR-7 (human TLR7) | NF-kappaB activation in HEK-293 cells expressing TLR-8 (human TLR8) | adjuvanticity, conjugates versus free R848 [1]
RLK(PEG-FIM)-NH2 (Arg-Leu-Lys(PEG‑FIM)-NH2; reading uncertain; also: printed as RLK(PEG-FIM)-NH2) [RLK-PEG-FIM-01] | also active in the TLR-7 and TLR-8 cell line but to a much lesser extent compared to R848 | also active in the TLR-7 and TLR-8 cell line but to a much lesser extent compared to R848 | 
CCOCc1nc2c(N)nc3ccccc3c2n1CC(C)(C)O [Peptide R848, [4-Amino-2-(ethoxymethyl)-1H-imidazo[4,5-c]quinolin-1-yl]-2-methyl-2-propanol, HCl, reference compound] | highly active | highly active | little to no-adjuvanticity

Source: patent publication US9962453B2, “Immunogenic compound” (ALTIMMUNE UK LIMITED, priority 2013, dated 2018)
